The values below come from patent US11279681B2, “3-alkyl bicyclic [4,5,0] hydroxamic acids as HDAC inhibitors” (Valo Health, Inc., priority 2015, dated 2022).

This assay concerns the target T1, HDAC6 (Homo sapiens, UniProt Q9UBN7).
T1 sequence (Q9UBN7 1-1215): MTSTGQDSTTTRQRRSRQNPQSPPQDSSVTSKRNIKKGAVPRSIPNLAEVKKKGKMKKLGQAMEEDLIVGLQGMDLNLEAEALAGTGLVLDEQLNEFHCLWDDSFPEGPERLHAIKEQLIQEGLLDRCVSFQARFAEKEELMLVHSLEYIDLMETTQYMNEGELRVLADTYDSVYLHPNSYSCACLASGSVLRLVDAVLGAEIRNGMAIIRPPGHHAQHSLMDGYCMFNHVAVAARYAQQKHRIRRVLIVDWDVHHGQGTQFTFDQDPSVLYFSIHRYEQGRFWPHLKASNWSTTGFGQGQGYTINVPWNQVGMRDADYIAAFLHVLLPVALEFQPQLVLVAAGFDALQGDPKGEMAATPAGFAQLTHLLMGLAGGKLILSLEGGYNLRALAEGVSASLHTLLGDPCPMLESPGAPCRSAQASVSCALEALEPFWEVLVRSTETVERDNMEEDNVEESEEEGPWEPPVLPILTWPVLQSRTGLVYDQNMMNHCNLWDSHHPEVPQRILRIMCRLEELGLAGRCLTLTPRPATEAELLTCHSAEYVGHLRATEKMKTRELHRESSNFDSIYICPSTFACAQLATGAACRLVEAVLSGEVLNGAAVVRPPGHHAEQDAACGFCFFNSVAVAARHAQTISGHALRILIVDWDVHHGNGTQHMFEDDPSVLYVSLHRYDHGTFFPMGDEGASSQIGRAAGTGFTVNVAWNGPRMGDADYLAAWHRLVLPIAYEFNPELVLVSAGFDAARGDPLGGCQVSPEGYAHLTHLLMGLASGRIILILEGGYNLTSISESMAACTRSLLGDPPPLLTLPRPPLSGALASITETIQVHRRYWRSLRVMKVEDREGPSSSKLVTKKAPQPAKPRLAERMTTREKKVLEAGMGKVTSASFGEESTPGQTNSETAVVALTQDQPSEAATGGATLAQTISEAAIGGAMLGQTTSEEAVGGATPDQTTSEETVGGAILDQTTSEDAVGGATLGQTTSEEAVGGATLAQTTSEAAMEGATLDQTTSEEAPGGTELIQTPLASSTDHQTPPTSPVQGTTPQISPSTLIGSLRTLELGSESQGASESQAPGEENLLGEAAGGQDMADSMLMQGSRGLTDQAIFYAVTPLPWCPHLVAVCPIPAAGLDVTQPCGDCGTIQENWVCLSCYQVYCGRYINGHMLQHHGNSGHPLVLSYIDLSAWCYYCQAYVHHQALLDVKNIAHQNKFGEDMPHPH
The assay can be described thus: In vitro histone deacetylase assay: enzymatic HDAC6 electrophoretic mobility shift assay. The settings on record: full length human recombinant HDAC6, 1 nM enzyme, 2 μM peptide substrate RHKK(Ac)-NH2, 25° C.; read-out: Inhibitory Concentration (IC50) Values for Representative Compounds against HDAC6, Activity Range. Type of assay: biochemical. The method, then:
The enzymatic HDAC6 assay was performed using electrophoretic mobility shift assay. […] The enzymatic reactions were assembled in 384 well plates in a total volume of 25 μL in a reaction buffer composing: 100 mM HEPES, pH7.5, 25 mM KCl, 0.1% bovine serum albumin, 0.01% Triton X-100, 1% DMSO (from compounds) 2 μM of the fluorescently labeled peptide substrate and enzyme. The enzyme was added at a final concentration of 1 nM. The peptide substrate RHKK(Ac)-NH2 was used. The compounds were tested at 12 concentrations spaced by 3× dilution intervals. Negative control samples (0%-inhibition in the absence of inhibitor) and positive control samples (100%-inhibition) were assembled in replicates of four in each assay plate. The reactions were incubated at 25° C. and quenched by the addition of 45 μL of termination buffer (100 mM HEPES, pH 7.5, 0.01% Triton X-100, 0.05% SDS).
The terminated assay plates were analyzed on LabChip® 3000 microfluidic electrophoresis instrument (Perkin Elmer/Caliper Life Sciences). The fluorescence intensity of the electrophoretically separated de-acetylated product and substrate peptide was measured. Activity in each sample was determined as the product to sum ratio (PSR): P/(S+P), where P is the peak height of the product peptide and S is the peak height of the substrate peptide. Percent inhibition (Pinh) is determined using the following equation:
Pinh=(PSR0%−PSRinh)/(PSR0%−PSR100%)*100, where PSRinh is the product sum ratio in the presence of inhibitor, PSR0% is the average product sum ration in the absence of inhibitor and PSR100% is the average product sum ratio in 100%-inhibition control samples. The IC50 values of inhibitors were determined by fitting the %-inhibition curves with 4 parameter dose-response model using XLfit 4 software.
In general terms: A gel shift assay detects complexes by their altered migration in electrophoresis.

On to `COc1ccc(NC(=O)N2Cc3ccc(C(=O)NO)cc3O[C@H](C(C)C)C2)cc1` [(R)-N8-hydroxy-2-isopropyl-N4-(4-methoxyphenyl)-2,3-dihydrobenzo[f][1,4]oxazepine-4,8(5H)-dicarboxamide], for which the IC50 is more than 500 nM.
The same measure for `C[C@H]1COc2cc(C(=O)NO)ccc2CN1C(=O)N1C[C@@H]2CC[C@@H](C1)O2` [(S)-4-((1S,5S)-8-oxa-3-azabicyclo[3.2.1]octane-3-carbonyl)-N-hydroxy-3-methyl-2,3,4,5-tetrahydrobenzo[f][1,4]oxazepine-8-carboxamide]: not above 100 nM; for `COc1ccc(S(=O)(=O)N2CCOc3cc(C(=O)NO)ccc3C2)cc1`: 100 to 500 nM; for `CC1(C)COc2cc(C(=O)NO)ccc2CN1` [N-hydroxy-3,3-dimethyl-2,3,4,5-tetrahydrobenzo[f][1,4]oxazepine-8-carboxamide]: not above 100 nM.
Turning to `O=C1CN(Cc2cccc3ccccc23)Cc2cc(C(=O)NO)ccc2N1`, the IC50 was not above 100 nM.
The same measure for `COCCn1c(N2CCOc3cc(C(=O)NO)ccc3C2)nc2ccccc21`: not above 100 nM.
Take `C[C@H]1COc2cc(C(=O)NO)ccc2CN1C(=O)Nc1ccncc1` [(S)-N8-hydroxy-3-methyl-N4-(pyridin-4-yl)-2,3-dihydrobenzo[f][1,4]oxazepine-4,8(5H)-dicarboxamide]: the IC50 is not above 100 nM.
The same measure for `CC(C)N1CCC(CN2CC(=O)Nc3ccc(C(=O)NO)cc3C2)CC1`: more than 500 nM; for `O=C1CN(Cc2ccccc2OC(F)(F)F)Cc2cc(C(=O)NO)ccc2N1`: not above 100 nM; for `COc1ccc(NC(=O)N2Cc3ccc(C(=O)NO)cc3O[C@@H](c3ccccc3)C2)cc1` [(S)-N8-hydroxy-N4-(4-methoxyphenyl)-2-phenyl-2,3-dihydrobenzo[f][1,4]oxazepine-4,8(5H)-dicarboxamide]: not above 100 nM.
With `C[C@H]1COc2cc(C(=O)NO)ccc2CN1CCCN1CCOCC1` [(S)-N-hydroxy-3-methyl-4-(3-morpholinopropyl)-2,3,4,5-tetrahydrobenzo[f][1,4]oxazepine-8-carboxamide] the figure was 100 to 500 nM; with `O=C1CN(Cc2ccc(OC(F)(F)F)cc2)Cc2cc(C(=O)NO)ccc2N1`, 100 to 500 nM.
With `C[C@H]1COc2cc(C(=O)NO)ccc2CN1c1cccc(F)c1` [(S)-4-(3-fluorophenyl)-N-hydroxy-3-methyl-2,3,4,5-tetrahydrobenzo[f][1,4]oxazepine-8-carboxamide] the figure was not above 100 nM; with `COc1ccc(CN2CCOc3cc(C(=O)NO)ccc3C2=O)cc1`, 100 to 500 nM.
With `O=C1CN(Cc2nc3ccccc3[nH]2)Cc2ccc(C(=O)NO)cc2N1`, the IC50 was 100 to 500 nM.
With `Cn1ccnc1CN1CC(=O)Nc2ccc(C(=O)NO)cc2C1` the figure was 100 to 500 nM.
The same measure for `C[C@H]1CNCc2ccc(C(=O)NO)cc2O1` [(S)—N-hydroxy-2-methyl-2,3,4,5-tetrahydrobenzo[f][1,4]oxazepine-8-carboxamide]: 100 to 500 nM; for `O=C1CN(Cc2ccccc2Cl)Cc2cc(C(=O)NO)ccc2N1`: 100 to 500 nM; for `C[C@H]1COc2cc(C(=O)NO)ccc2CN1c1ccccn1` [(S)-N-hydroxy-3-methyl-4-(pyridin-2-yl)-2,3,4,5-tetrahydrobenzo[f][1,4]oxazepine-8-carboxamide]: not above 100 nM.
With `CC(C)c1ccc(CN2CC(=O)Nc3ccc(C(=O)NO)cc3C2)cc1` the figure was not above 100 nM; with `C[C@H]1COc2cc(C(=O)NO)ccc2CN1C(=O)Nc1cccnc1` [(S)-N8-hydroxy-3-methyl-N4-(pyridin-3-yl)-2,3-dihydrobenzo[f][1,4]oxazepine-4,8(5H)-dicarboxamide], not above 100 nM.
With `C[C@@H]1COc2cc(C(=O)NO)ccc2CN1C` [(R)—N-hydroxy-3,4-dimethyl-2,3,4,5-tetrahydrobenzo[f][1,4]oxazepine-8-carboxamide], the IC50 was not above 100 nM.
Turning to `CC1CCCCN1C(=O)N1CCOc2cc(C(=O)NO)ccc2C1` (stereo not drawn) [N-hydroxy-4-(2-methylpiperidine-1-carbonyl)-2,3,4,5-tetrahydrobenzo[f][1,4]oxazepine-8-carboxamide], the IC50 was not above 100 nM.
The same measure for `CC(C)N1Cc2ccc(C(=O)NO)cc2OC[C@@H]1C` [(S)-N-hydroxy-4-isopropyl-3-methyl-2,3,4,5-tetrahydrobenzo[f][1,4]oxazepine-8-carboxamide]: more than 500 nM.
As to `C[C@H]1COc2cc(C(=O)NO)ccc2CN1C(=O)N(C)C` [(S)-N8-hydroxy-N4,N4,3-trimethyl-2,3-dihydrobenzo[f][1,4]oxazepine-4,8(5H)-dicarboxamide], the IC50 is not above 100 nM.
The same measure for `C[C@H]1COc2cc(C(=O)NO)ccc2CN1CC1CCC1` [(S)-4-(cyclobutylmethyl)-N-hydroxy-3-methyl-2,3,4,5-tetrahydrobenzo[f][1,4]oxazepine-8-carboxamide]: not above 100 nM.
The same measure for `N#Cc1ccc(N2CCOc3cc(C(=O)NO)ccc3C2)cc1C(F)(F)F`: 100 to 500 nM; for `O=C1CN(Cc2ccccc2)Cc2cc(C(=O)NO)ccc2N1` [4-benzyl-N-hydroxy-2-oxo-2,3,4,5-tetrahydro-1H-benzo[e][1,4]diazepine-7-carboxamide]: 100 to 500 nM; for `C[C@H]1COc2cc(C(=O)NO)ccc2CN1C(=O)N1Cc2ccccc2C1` [(S)-N-hydroxy-4-(isoindoline-2-carbonyl)-3-methyl-2,3,4,5-tetrahydrobenzo[f][1,4]oxazepine-8-carboxamide]: not above 100 nM.
With `C[C@H]1COc2cc(C(=O)NO)ccc2CN1C(=O)N1CCCC1` [(S)-N-hydroxy-3-methyl-4-(pyrrolidine-1-carbonyl)-2,3,4,5-tetrahydrobenzo[f][1,4]oxazepine-8-carboxamide] the figure was not above 100 nM; with `C[C@@H]1CN(c2ccccc2)Cc2ccc(C(=O)NO)cc2O1`, 100 to 500 nM.
For the molecule `COc1ccc(CN2Cc3ccc(C(=O)NO)cc3OC[C@H]2C)cc1`, the IC50 is not above 100 nM.
The same measure for `O=C(NO)c1ccc2c(c1)OCCN(CC1CCCCC1)C2`: 100 to 500 nM; for `COc1ccc(NC(=O)N2Cc3ccc(C(=O)NO)cc3OC[C@@H]2C)cc1`: not above 100 nM; for `Cc1ccc(N2CCOc3cc(C(=O)NO)ccc3C2)cc1` [N-hydroxy-4-(p-tolyl)-2,3,4,5-tetrahydrobenzo[f][1,4]oxazepine-8-carboxamide]: 100 to 500 nM.
On to `COc1ccc(CCN2CC(=O)Nc3ccc(C(=O)NO)cc3C2)cc1`, for which the IC50 lay within 100 to 500 nM.
Regarding `CC(C)[C@H]1COc2cc(C(=O)NO)ccc2CN1c1ccncc1` [(S)-N-hydroxy-3-isopropyl-4-(pyridin-4-yl)-2,3,4,5-tetrahydrobenzo[f][1,4]oxazepine-8-carboxamide], the IC50 was more than 500 nM.
With `COc1ccc(NC(=O)N2CCOc3cc(C(=O)NO)ccc3C2)cc1` the figure was 100 to 500 nM; with `O=C(NO)c1ccc2c(c1)OC[C@H](Cc1ccccc1)N(C(=O)N1CCOCC1)C2` [(S)-3-benzyl-N-hydroxy-4-(morpholine-4-carbonyl)-2,3,4,5-tetrahydrobenzo[f][1,4]oxazepine-8-carboxamide], not above 100 nM.
